Test systems include 786-0 renal; CAKI-1 renal; HCC-2998 colon; HL-60(TB) leukemia; HS 578T breast; MDA-MB-435; NCI-H460 lung; RPMI-8226 leukemia; HT29 colon; MOLT-4 leukemia.
Common to all, as to experiment: NCI-60 cell line screen, 48 h

Molecules are shown by their SMILES.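 Grown in 96-well plates, cells were treated for 48 hours with each compound at five concentrations. Insufficient inhibition: endpoint recorded as highest concentration tested. Abbreviation: GI50, concentration required for 50% inhibition of growth. Definition used: TGI = concentration required for complete inhibition of growth.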

In the case of `Cc1cn2c(/C=N/Nc3ccccn3)c(-c3ccc(Cl)c([N+](=O)[O-])c3)nc2s1`, the GI50 with 786-0 renal is 18.5 µM; with CAKI-1 renal it was 39 µM; in the assay with HCC-2998 colon, > 50 µM; with HL-60(TB) leukemia it was > 50 µM; in the assay with HS 578T breast, 12 µM; in the assay on MDA-MB-435 it was 30.3 µM. In addition, the GI50 with NCI-H460 lung is 5.3 µM; in the assay with RPMI-8226 leukemia it was 30.2 µM. The TGI in the assay on 786-0 renal was > 50 µM; in the assay on CAKI-1 renal it was > 50 µM; in the assay on HCC-2998 colon, > 50 µM; in the assay with HL-60(TB) leukemia, > 50 µM; in the assay on HS 578T breast, 39.4 µM; in the assay on MDA-MB-435 it was > 50 µM. Besides, the TGI in the assay on NCI-H460 lung is 22.3 µM; in the assay with RPMI-8226 leukemia it was > 50 µM.
As to `Nc1ccc(-c2ccc(N)cc2I)c(I)c1`, the GI50 is 17.3 µM with 786-0 renal; 14.5 µM in the assay with CAKI-1 renal; 19.1 µM in the assay with HCC-2998 colon; 18.4 µM in the assay on HL-60(TB) leukemia; 17.1 µM in the assay with HS 578T breast; 20 µM in the assay with HT29 colon. In addition, the GI50 was 3.72 µM with MDA-MB-435, 9.89 µM in the assay on MOLT-4 leukemia, 19.4 µM with NCI-H460 lung and 14 µM in the assay on RPMI-8226 leukemia. The TGI in the assay with 786-0 renal amounted to 36.9 µM; in the assay with CAKI-1 renal, 42.9 µM; in the assay on HCC-2998 colon, 42.2 µM; in the assay on HL-60(TB) leukemia, 47.6 µM; in the assay on HS 578T breast, 88.3 µM; in the assay on HT29 colon it was 42.8 µM. The TGI in the assay on MDA-MB-435 was determined as 16.2 µM; in the assay with MOLT-4 leukemia, 43.6 µM; in the assay on NCI-H460 lung, 39.3 µM; in the assay with RPMI-8226 leukemia, 37.7 µM.
In the case of `CSc1ccccc1C#Cc1ccccc1C#CCCCCO`, the GI50 with 786-0 renal is 11 µM; in the assay with CAKI-1 renal it was 7.13 µM; with HCC-2998 colon it was 10 µM; in the assay on HS 578T breast it was 7.62 µM; in the assay with HT29 colon, 5.46 µM; in the assay with MDA-MB-435, 3.9 µM. Besides, the GI50 is 7.32 µM with MOLT-4 leukemia, 8.64 µM with NCI-H460 lung and 6.79 µM in the assay with RPMI-8226 leukemia. Further, the TGI was determined as 26.6 µM in the assay on 786-0 renal; 20.5 µM with CAKI-1 renal; 22.9 µM in the assay with HCC-2998 colon; 32.3 µM with HS 578T breast; 19.2 µM in the assay on HT29 colon; 15.2 µM in the assay on MDA-MB-435. The results for the TGI in the assay on MOLT-4 leukemia, in the assay on NCI-H460 lung and with RPMI-8226 leukemia were 29.3 µM, 22.2 µM and 46.6 µM, respectively.
For `S=C(Nc1cc(Cl)c(Cl)cc1Cl)SCc1ccccc1`, the TGI was > 100 µM with 786-0 renal; 44 µM in the assay on CAKI-1 renal; 50.4 µM with HL-60(TB) leukemia; > 100 µM with HS 578T breast; 43.7 µM in the assay on HT29 colon; 38.6 µM in the assay on MDA-MB-435. Further, the TGI in the assay with MOLT-4 leukemia was 76.4 µM; in the assay on NCI-H460 lung, > 100 µM; in the assay with RPMI-8226 leukemia, 46.5 µM.
`O=C(CN(/C=C/C(=O)C(F)(F)F)c1ccccc1)c1ccc(Cl)c(Cl)c1`: the GI50 with 786-0 renal was 17.6 µM; in the assay on CAKI-1 renal, 8.44 µM; in the assay on HCC-2998 colon it was 15.8 µM; in the assay on HS 578T breast, 14.8 µM; with HT29 colon, 34.1 µM; in the assay with MDA-MB-435, 14.9 µM. The GI50 in the assay on MOLT-4 leukemia was 12.7 µM; with NCI-H460 lung, 17.5 µM; in the assay on RPMI-8226 leukemia it was 13.9 µM. For the same compound, the TGI with 786-0 renal was 37.5 µM; in the assay on CAKI-1 renal it was 23.4 µM; in the assay with HCC-2998 colon it was 29.9 µM; with HS 578T breast, 49.6 µM; in the assay with HT29 colon, > 100 µM; with MDA-MB-435, 31.9 µM. Moreover, the TGI with MOLT-4 leukemia amounted to 32.4 µM; with NCI-H460 lung, 44.9 µM; with RPMI-8226 leukemia it was 40.2 µM.
On to `CC12CC(OC(=O)[C@]1(C)O)[C@@H]([C@]1(O)CC[C@H]3[C@@H]4C[C@H]5O[C@]56[C@@H](O)C=CC(=O)[C@]6(C)[C@H]4CC[C@@]31C)C2` (some centres undefined), for which the TGI with 786-0 renal turned out to be 10.1 µM; in the assay on CAKI-1 renal, 24.9 µM; with HCC-2998 colon it was 36.4 µM; in the assay with HS 578T breast, 35.7 µM; in the assay on HT29 colon, 15.2 µM; in the assay with MDA-MB-435 it was 29.4 µM. Further, the TGI in the assay on MOLT-4 leukemia amounted to 10.1 µM; in the assay on NCI-H460 lung it was 32.3 µM.
For the compound `CC(C)C[C@H](NC(=O)[C@@H](O)[C@H](N)Cc1ccc([N+](=O)[O-])cc1)C(=O)O`, the GI50 in the assay with 786-0 renal, in the assay with CAKI-1 renal, with HCC-2998 colon, in the assay with HS 578T breast, in the assay on HT29 colon and in the assay on MDA-MB-435 was > 25 µM in each case. The GI50 with NCI-H460 lung was > 25 µM. Besides, the TGI in the assay on 786-0 renal, with CAKI-1 renal, in the assay with HCC-2998 colon, in the assay with HS 578T breast, in the assay with HT29 colon and in the assay with MDA-MB-435 was > 25 µM each time. Also, in the assay on NCI-H460 lung, the TGI was > 25 µM.
For `Nc1c(C(=O)Nc2ccccc2)sc2nc3c(cc12)CN(Cc1ccccc1)CC3`, the GI50 in the assay on 786-0 renal was 13 µM; with CAKI-1 renal it was 19.7 µM; in the assay on HCC-2998 colon, 76.1 µM; in the assay on HS 578T breast, 2.07 µM; in the assay with HT29 colon, 24.7 µM; with MDA-MB-435 it was 3.43 µM. The GI50 is 31.3 µM in the assay on MOLT-4 leukemia, 7.51 µM in the assay on NCI-H460 lung and 55.8 µM in the assay with RPMI-8226 leukemia. The TGI is > 100 µM with 786-0 renal; > 100 µM in the assay with CAKI-1 renal; > 100 µM with HCC-2998 colon; 7.55 µM in the assay on HS 578T breast; > 100 µM in the assay with HT29 colon; 71.6 µM in the assay with MDA-MB-435. The TGI in the assay on MOLT-4 leukemia, in the assay with NCI-H460 lung and in the assay on RPMI-8226 leukemia was > 100 µM in each case.
Consider `Nc1cc(N)c2nc(-c3ccccc3)c(NCc3ccc(F)cc3)nc2c1`, for which the GI50 with 786-0 renal is 23.7 µM; in the assay with CAKI-1 renal, 15.3 µM; in the assay with HL-60(TB) leukemia it was 3.85 µM; in the assay with HS 578T breast it was 4.86 µM; with HT29 colon, 3.19 µM; with MDA-MB-435, 2.01 µM. Besides, the GI50 in the assay with MOLT-4 leukemia was > 100 µM; in the assay on NCI-H460 lung, 4.05 µM; in the assay with RPMI-8226 leukemia it was 2.54 µM. Further, the TGI is 62.2 µM with 786-0 renal; 37.1 µM in the assay with CAKI-1 renal; > 100 µM with HL-60(TB) leukemia; > 100 µM in the assay with HS 578T breast; 12.5 µM in the assay on HT29 colon; 3.74 µM in the assay with MDA-MB-435. The figures for the TGI in the assay with MOLT-4 leukemia, in the assay on NCI-H460 lung and in the assay with RPMI-8226 leukemia were > 100 µM, 25.6 µM and 6.25 µM, respectively.

These data come from PubChem BioAssay (NCI).
